In series [1] the test system is SKBR-3 (human breast cancer cell line). Put plainly: cells. It counts as cell-based. The following applies: for IC50: SRB assay, 72 h exposure, read-out: Anticancer activity IC50 (nM) ± SD, SKBR-3.
The test system of series [2] is U-87MG cells (glioblastoma cell line). Put plainly: cells. It counts as cell-based, human. The note with it: SRB assay, 72 h exposure, read-out: Anticancer activity IC50 (nM) ± SD, U-87.
Series [3] has as its system SKOV-3 (ovarian cancer cell line). As to the kind of experiment: cells. It counts as cell-based, human. The note with it: for IC50: SRB assay, 72 h exposure, read-out: Anticancer activity IC50 (nM) ± SD, SKOV-3. (In general: The SRB assay estimates cell density from bound dye.)
A further series is described as follows: in vitro. The note with it: human.
The test system of series [4] is PC-3 (human prostate cancer cell line). Put plainly: cells. The following applies: for IC50: SRB assay, 72 h exposure, read-out: Anticancer activity IC50 (nM) ± SD, PC-3. Format: cell-based.
Where [5] appears, read: Toxicity IC50 (nM) ± SD, HDF, healthy cell line HDF, SRB assay, 72 h exposure.

Like-named read-outs stand apart in the source and are kept apart here. Numbered stars: 1 amine (or outer) side, 2 acyl side, 3 side chain; on linkers, the order of the positions; unused ones are H or OH. Bridge positions count the residues as written; N and C are the ends. Square brackets hold non-standard residues; d marks the D form. Peptide text beside a SMILES is read from it. I, II: the chains in the order shown. Actinocin(9to1) = Cc1c2oc3c(C)ccc(C(=O)[*:1])c3nc-2c(C(=O)[*:2])c(N)c1=O; NMeV = CN[C@H](C(=O)O)C(C)C; Sar = CNCC(=O)O

Regarding `CCOC(=O)COc1cc2c(ccc1=O)-c1c(cc(OC)c(OC)c1OC)CC[C@@H]2NC(C)=O` [Compound 3g], the IC50 in series [1] (Homo sapiens, SK-BR-3, 72 h) turned out to be 1.31 ± 0.08 nM; in series [2] (Homo sapiens, U-87 MG), 1.41 ± 0.03 nM; in series [3] (Homo sapiens, SK-OV-3) it was 1.37 ± 0.01 nM; in the series “in vitro” (setting [5]), 2.72 ± 0.03 nM; in series [4] (Homo sapiens), 1.62 ± 0.29 nM.

With `COc1cc2c(c(OC)c1OC)-c1ccc(=O)c(OCc3ccc(/C=C/c4ccc(CNC5=C6C[C@@H](C)C[C@H](OC)[C@H](O)[C@@H](C)/C=C(\C)[C@H](OC(N)=O)[C@@H](OC)/C=C\C=C(/C)C(=O)NC(=CC5=O)C6=O)cc4)cc3)cc1[C@@H](NC(C)=O)CC2` [Compound 7d], the IC50 in series [1] (Homo sapiens, SK-BR-3, 72 h) amounted to 7.22 ± 0.19 nM; in series [2] (Homo sapiens, U-87 MG) it was 7.06 ± 0.44 nM; in series [3] (Homo sapiens, SK-OV-3), 7.04 ± 0.15 nM; in the series “in vitro” (setting [5]) it was 9.04 ± 0.29 nM; in series [4] (Homo sapiens), 7.49 ± 0.32 nM.

Regarding `COc1cc2c(c(OC)c1OC)-c1ccc(=O)c(OCCCN=[N+]=[N-])cc1[C@@H](NC(C)=O)CC2` [Compound 3i], the IC50 in series [1] (Homo sapiens, SK-BR-3, 72 h) stood at 1.32 ± 0.05 nM; in series [2] (Homo sapiens, U-87 MG), 1.88 ± 0.05 nM; in series [3] (Homo sapiens, SK-OV-3), 1.05 ± 0.02 nM; in “in vitro” (setting [5]) it was 2.85 ± 0.13 nM; in series [4] (Homo sapiens), 1.43 ± 0.02 nM.

Consider `COc1cc2c(c(OC)c1OC)-c1ccc(OCc3cn([C@@H]4O[C@H](COC(C)=O)[C@@H](OC(C)=O)[C@H](OC(C)=O)[C@H]4NC(C)=O)nn3)c(=O)cc1[C@@H](NC(C)=O)CC2` [Compound 6d], for which the IC50 in series [1] (Homo sapiens, SK-BR-3, 72 h) was 5.21 ± 0.39 nM; in series [2] (Homo sapiens, U-87 MG), 5.83 ± 0.15 nM; in series [3] (Homo sapiens, SK-OV-3), 5.93 ± 0.12 nM; in the series “in vitro” (setting [5]), 7.29 ± 0.41 nM; in series [4] (Homo sapiens), 5.04 ± 0.02 nM.

Consider `COc1cc2c(c(OC)c1OC)-c1ccc(OCc3ccc(/C=C/c4ccc5ccccc5c4)cc3)c(=O)cc1[C@@H](NC(C)=O)CC2` [Compound 8a], for which the IC50 was determined as 6.3 ± 0.09 nM in series [1] (Homo sapiens, SK-BR-3, 72 h); 6.44 ± 0.07 nM in series [2] (Homo sapiens, U-87 MG); 6.49 ± 0.25 nM in series [3] (Homo sapiens, SK-OV-3); 8.72 ± 0.48 nM in “in vitro” (setting [5]); 6.03 ± 0.26 nM in series [4] (Homo sapiens).

For the molecule `COc1cc2c(c(OC)c1OC)-c1ccc(OCc3ccc(I)cc3)c(=O)cc1[C@@H](NC(C)=O)CC2` [Compound 4b], the IC50 in series [1] (Homo sapiens, SK-BR-3, 72 h) was 2.77 ± 0.19 nM; in series [2] (Homo sapiens, U-87 MG) it was 2.85 ± 0.03 nM; in series [3] (Homo sapiens, SK-OV-3), 2.83 ± 0.26 nM; in “in vitro” (setting [5]) it was 4.12 ± 0.01 nM; in series [4] (Homo sapiens) it was 2.41 ± 0.66 nM.

`COc1cc2c(c(OC)c1OC)-c1ccc(=O)c(OCc3ccccc3)cc1[C@@H](NC(C)=O)CC2` [Compound 3a]: the IC50 is 2.04 ± 0.51 nM in series [1] (Homo sapiens, SK-BR-3, 72 h); 2.83 ± 0.06 nM in series [2] (Homo sapiens, U-87 MG); 2.19 ± 0.07 nM in series [3] (Homo sapiens, SK-OV-3); 6.39 ± 1.04 nM in the series “in vitro” (setting [5]); 2.27 ± 0.04 nM in series [4] (Homo sapiens). The “Selectivity index (SI), SKBR-3” value in series [1] (SI = IC50 HDF/IC50 SKBR-3) was roughly 3.

With `COc1cc2c(c(OC)c1OC)-c1ccc(=O)c(OCc3cn(Cc4ccc([N+](=O)[O-])cc4)nn3)cc1[C@@H](NC(C)=O)CC2` [Compound 5c], the IC50 in series [1] (Homo sapiens, SK-BR-3, 72 h) turned out to be 2.18 ± 0.02 nM; in series [2] (Homo sapiens, U-87 MG), 2.04 ± 0.08 nM; in series [3] (Homo sapiens, SK-OV-3), 2.94 ± 0.71 nM; in “in vitro” (setting [5]), 3.12 ± 0.41 nM; in series [4] (Homo sapiens), 2.09 ± 0.33 nM.

Turning to `C#CCOc1cc2c(ccc1=O)-c1c(cc(OC)c(OC)c1OC)CC[C@@H]2NC(C)=O` [Compound 3f], the IC50 was determined as 1.37 ± 0.02 nM in series [1] (Homo sapiens, SK-BR-3, 72 h); 1.14 ± 0.01 nM in series [2] (Homo sapiens, U-87 MG); 1.05 ± 0.07 nM in series [3] (Homo sapiens, SK-OV-3); 2.83 ± 0.44 nM in the series “in vitro” (setting [5]); 1.05 ± 0.03 nM in series [4] (Homo sapiens). Besides, the “Selectivity index (SI), SKOV-3” value in series [3] (SI = IC50 HDF/IC50 SKOV-3) is listed as roughly 2.7. Moreover, the “Selectivity index (SI), PC-3” value in series [4] (SI = IC50 HDF/IC50 PC-3) is reported as roughly 2.7.

Turning to `CCOC(=O)COc1ccc2c(cc1=O)[C@@H](NC(C)=O)CCc1cc(OC)c(OC)c(OC)c1-2` [Compound 4g], the IC50 amounted to 1.28 ± 0.17 nM in series [1] (Homo sapiens, SK-BR-3, 72 h); 1.27 ± 0.01 nM in series [2] (Homo sapiens, U-87 MG); 1.06 ± 0.22 nM in series [3] (Homo sapiens, SK-OV-3); 2.05 ± 0.02 nM in the series “in vitro” (setting [5]); 1.15 ± 0.03 nM in series [4] (Homo sapiens).

Consider `COc1cc2c(c(OC)c1OC)-c1ccc(OCc3cn(Cc4ccc([N+](=O)[O-])cc4)nn3)c(=O)cc1[C@@H](NC(C)=O)CC2` [Compound 6c], for which the IC50 in series [1] (Homo sapiens, SK-BR-3, 72 h) came out at 2.88 ± 0.06 nM; in series [2] (Homo sapiens, U-87 MG), 2.81 ± 0.18 nM; in series [3] (Homo sapiens, SK-OV-3), 2.42 ± 0.11 nM; in “in vitro” (setting [5]), 4.08 ± 0.26 nM; in series [4] (Homo sapiens) it was 2.05 ± 0.03 nM.

As to `COc1cc2c(c(OC)c1OC)-c1ccc(OCc3ccccc3)c(=O)cc1[C@@H](NC(C)=O)CC2` [Compound 4a], the IC50 in series [1] (Homo sapiens, SK-BR-3, 72 h) is 2.01 ± 0.02 nM; in series [2] (Homo sapiens, U-87 MG), 2.08 ± 0.01 nM; in series [3] (Homo sapiens, SK-OV-3), 1.63 ± 0.03 nM; in the series “in vitro” (setting [5]) it was 4.12 ± 0.06 nM; in series [4] (Homo sapiens), 2.26 ± 0.01 nM.

On to `COc1cc2c(c(OC)c1OC)-c1ccc(=O)c(OCc3ccc(/C=C/c4ccc5ccccc5c4)cc3)cc1[C@@H](NC(C)=O)CC2` [Compound 7a], for which the IC50 in series [1] (Homo sapiens, SK-BR-3, 72 h) was determined as 8.02 ± 0.08 nM; in series [2] (Homo sapiens, U-87 MG), 8.63 ± 0.14 nM; in series [3] (Homo sapiens, SK-OV-3) it was 8.54 ± 0.71 nM; in the series “in vitro” (setting [5]), 8.19 ± 0.92 nM; in series [4] (Homo sapiens), 8.61 ± 0.38 nM.

As for `COc1cc2c(c(OC)c1OC)-c1ccc(=O)c(O)cc1[C@@H](NC(C)=O)CC2` [Compound 2, colchiceine, reference compound], the IC50 in series [1] stood at 1.04 ± 0.07 nM; in series [2] it was 1.26 ± 0.04 nM; in series [3] it was 1.88 ± 0.02 nM; in series [4], 1.37 ± 0.02 nM.

In the case of `C#CCOc1ccc2c(cc1=O)[C@@H](NC(C)=O)CCc1cc(OC)c(OC)c(OC)c1-2` [Compound 4f], the concentration for half-maximal inhibition (IC50) in series [1] (Homo sapiens, SK-BR-3, 72 h) amounted to 1.48 ± 0.09 nM; in series [2] (Homo sapiens, U-87 MG) it was 1.06 ± 0.04 nM; in series [3] (Homo sapiens, SK-OV-3) it was 1.52 ± 0.02 nM; in the series “in vitro” (setting [5]), 1.85 ± 0.03 nM; in series [4] (Homo sapiens), 1.46 ± 0.13 nM.

As for `C/C=C/COc1ccc2c(cc1=O)[C@@H](NC(C)=O)CCc1cc(OC)c(OC)c(OC)c1-2` [Compound 4e], the IC50 is 1.97 ± 0.04 nM in series [1] (Homo sapiens, SK-BR-3, 72 h); 1.93 ± 0.02 nM in series [2] (Homo sapiens, U-87 MG); 1.92 ± 0.11 nM in series [3] (Homo sapiens, SK-OV-3); 2.66 ± 0.03 nM in the series “in vitro” (setting [5]); 1.98 ± 0.05 nM in series [4] (Homo sapiens).

As for `CO[C@@]12[C@H](COC(N)=O)C3=C(C(=O)C(C)=C(N)C3=O)N1C[C@@H]1N[C@@H]12` [MitC, mitomycin C, reference compound], the IC50 in series [1] (Homo sapiens, SK-BR-3) was determined as 670 ± 10 nM; in series [2] (Homo sapiens, U-87 MG) it was 650 ± 40 nM.

Regarding `COc1cc2c(c(OC)c1OC)-c1ccc(OC/C=C/c3ccccc3)c(=O)cc1[C@@H](NC(C)=O)CC2` [Compound 4c], the IC50 in series [1] (Homo sapiens, SK-BR-3, 72 h) came out at 3.46 ± 0.07 nM; in series [2] (Homo sapiens, U-87 MG) it was 3.82 ± 0.22 nM; in series [3] (Homo sapiens, SK-OV-3), 3.05 ± 0.03 nM; in “in vitro” (setting [5]), 4.94 ± 0.15 nM; in series [4] (Homo sapiens), 3.19 ± 0.01 nM.

As for `COc1cc2c(c(OC)c1OC)-c1ccc(=O)c(OCc3cn(Cc4ccc(C#N)cc4)nn3)cc1[C@@H](NC(C)=O)CC2` [Compound 5b], the 50% inhibitory concentration (IC50) came out at 2.07 ± 0.08 nM in series [1] (Homo sapiens, SK-BR-3, 72 h); 2.57 ± 0.13 nM in series [2] (Homo sapiens, U-87 MG); 2.88 ± 0.47 nM in series [3] (Homo sapiens, SK-OV-3); 4.92 ± 0.51 nM in the series “in vitro” (setting [5]); 2.13 ± 0.02 nM in series [4] (Homo sapiens).

`COc1cc2c(c(OC)c1OC)-c1ccc(OC)c(=O)cc1[C@@H](NC(C)=O)CC2` [Compound 1, colchicine, reference compound] had an IC50 in “in vitro” of 2.37 ± 0.15 nM.

For `Cc1c2oc3c(C)ccc(C(=O)N[C@@H]4C(=O)N[C@H](C(C)C)C(=O)N5CCC[C@H]5C(=O)N(C)CC(=O)N(C)[C@@H](C(C)C)C(=O)O[C@@H]4C)c3nc-2c(C(=O)N[C@@H]2C(=O)N[C@H](C(C)C)C(=O)N3CCC[C@H]3C(=O)N(C)CC(=O)N(C)[C@@H](C(C)C)C(=O)O[C@@H]2C)c(N)c1=O` [ActD, actinomycin D, reference compound] (I: T[dV]P[Sar][NMeV] / II: T[dV]P[Sar][NMeV]; ester I:1-I:C, II:1-II:C; linker I:N-II:N via Actinocin(9to1)), the IC50 in series [1] (Homo sapiens, SK-BR-3) was found to be 1140 ± 60 nM; in series [2] (Homo sapiens, U-87 MG), 1610 ± 90 nM.

For orientation: IC50 means the midpoint of a concentration-inhibition curve.

For the origin of these results see PMC8788354 (Journal of Enzyme Inhibition and Medicinal Chemistry, 2022).
